# Results as given in ChEMBL document CHEMBL4308864, “Targeting tyrosine kinase: Development of acridone - pyrrole - oxindole hybrids against human breast cancer” (2019).
# Key:
# Format in all cases: functional
# [1] = system: SNB-75; experiment: Growth inhibition of human SNB75 cells assessed as cell growth at 10^-5 M incubated for 48 hrs by sulforhodamine B assay relative to control; details: SNB-75, 48 h, read-out: Activity
# [2] = system: SF-539; experiment: Growth inhibition of human SF539 cells assessed as cell growth at 10^-5 M incubated for 48 hrs by sulforhodamine B assay relative to control; details: SF-539, 48 h, read-out: Activity
# [3] = system: SN12C; experiment: Growth inhibition of human SN12C cells assessed as cell growth at 10^-5 M incubated for 48 hrs by sulforhodamine B assay relative to control; details: read-out: Activity
# [4] = system: IGROV-1; experiment: Growth inhibition of human IGROV1 cells assessed as cell growth at 10^-5 M incubated for 48 hrs by sulforhodamine B assay relative to control; details: IGROV-1, 48 h, read-out: Activity
# [5] = system: SK-OV-3; experiment: Growth inhibition of human SKOV3 cells assessed as cell growth at 10^-5 M incubated for 48 hrs by sulforhodamine B assay relative to control; details: SK-OV-3, 48 h, read-out: Activity
# [6] = system: M14; experiment: Growth inhibition of human M14 cells assessed as cell growth at 10^-5 M incubated for 48 hrs by sulforhodamine B assay relative to control; details: M14, 48 h, read-out: Activity
# [7] = system: NCI-H460; experiment: Growth inhibition of human NCI-H460 cells assessed as cell growth at 10^-5 M incubated for 48 hrs by sulforhodamine B assay relative to control; details: NCI-H460, 48 h, read-out: Activity
# [8] = system: MDA-MB-231; experiment: Growth inhibition of human MDA-MB-231 cells assessed as cell growth at 10^-5 M incubated for 48 hrs by sulforhodamine B assay relative to control; details: MDA-MB-231, 48 h, read-out: Activity
# [9] = system: SF-268; experiment: Growth inhibition of human SF268 cells assessed as cell growth at 10^-5 M incubated for 48 hrs by sulforhodamine B assay relative to control; details: SF-268, 48 h, read-out: Activity
# [10] = system: A498; experiment: Growth inhibition of human A498 cells assessed as cell growth at 10^-5 M incubated for 48 hrs by sulforhodamine B assay relative to control; details: A498, 48 h, read-out: Activity
# [11] = system: NCI-H322M; experiment: Growth inhibition of human NCI-H322M cells assessed as cell growth at 10^-5 M incubated for 48 hrs by sulforhodamine B assay relative to control; details: read-out: Activity
# [12] = system: HOP-92; experiment: Growth inhibition of human HOP92 cells assessed as cell growth at 10^-5 M incubated for 48 hrs by sulforhodamine B assay relative to control; details: HOP-92, 48 h, read-out: Activity
# [13] = system: HCC 2998; experiment: Growth inhibition of human HCC2998 cells assessed as cell growth at 10^-5 M incubated for 48 hrs by sulforhodamine B assay relative to control; details: HCC 2998, 48 h, read-out: Activity
# [14] = system: COLO 205; experiment: Growth inhibition of human COLO205 cells assessed as cell growth at 10^-5 M incubated for 48 hrs by sulforhodamine B assay relative to control; details: COLO 205, 48 h, read-out: Activity
# [15] = system: UACC-257; experiment: Growth inhibition of human UACC257 cells assessed as cell growth at 10^-5 M incubated for 48 hrs by sulforhodamine B assay relative to control; details: UACC-257, 48 h, read-out: Activity
# [16] = system: T47D; experiment: Growth inhibition of human T47D cells at 10^-5 M incubated for 48 hrs by sulforhodamine B assay relative to control; details: read-out: GI
# [17] = system: BT-549; experiment: Growth inhibition of human BT549 cells assessed as cell growth at 10^-5 M incubated for 48 hrs by sulforhodamine B assay relative to control; details: BT-549, 48 h, read-out: Activity
# [18] = system: K562; experiment: Growth inhibition of human K562 cells assessed as cell growth at 10^-5 M incubated for 48 hrs by sulforhodamine B assay relative to control; details: K562, 48 h, read-out: Activity
# [19] = system: CAKI-1; experiment: Growth inhibition of human Caki1 cells assessed as cell growth at 10^-5 M incubated for 48 hrs by sulforhodamine B assay relative to control; details: CAKI-1, 48 h, read-out: Activity
# [20] = system: OVCAR-4; experiment: Growth inhibition of human OVCAR4 cells assessed as cell growth at 10^-5 M incubated for 48 hrs by sulforhodamine B assay relative to control; details: OVCAR-4, 48 h, read-out: Activity
# [21] = system: TK-10; experiment: Growth inhibition of human TK10 cells assessed as cell growth at 10^-5 M incubated for 48 hrs by sulforhodamine B assay relative to control; details: TK-10, 48 h, read-out: Activity
# [22] = system: OVCAR-3; experiment: Growth inhibition of human OVCAR3 cells assessed as cell growth at 10^-5 M incubated for 48 hrs by sulforhodamine B assay relative to control; details: OVCAR-3, 48 h, read-out: Activity
# [23] = system: OVCAR-8; experiment: Growth inhibition of human OVCAR8 cells assessed as cell growth at 10^-5 M incubated for 48 hrs by sulforhodamine B assay relative to control; details: OVCAR-8, 48 h, read-out: Activity
# [24] = system: UO-31; experiment: Growth inhibition of human UO31 cells assessed as cell growth at 10^-5 M incubated for 48 hrs by sulforhodamine B assay relative to control; details: UO-31, 48 h, read-out: Activity
# [25] = system: DU-145; experiment: Growth inhibition of human DU145 cells assessed as cell growth at 10^-5 M incubated for 48 hrs by sulforhodamine B assay relative to control; details: DU-145, 48 h, read-out: Activity
# [26] = system: SF-295; experiment: Growth inhibition of human SF295 cells assessed as cell growth at 10^-5 M incubated for 48 hrs by sulforhodamine B assay relative to control; details: SF-295, 48 h, read-out: Activity
# [27] = system: KM12; experiment: Growth inhibition of human KM12 cells assessed as cell growth at 10^-5 M incubated for 48 hrs by sulforhodamine B assay relative to control; details: KM12, 48 h, read-out: Activity
# [28] = system: LOX IMVI; experiment: Growth inhibition of human LOXIMVI cells assessed as cell growth at 10^-5 M incubated for 48 hrs by sulforhodamine B assay relative to control; details: read-out: Activity
# [29] = system: RPMI-8226; experiment: Growth inhibition of human RPMI8226 cells assessed as cell growth at 10^-5 M incubated for 48 hrs by sulforhodamine B assay relative to control; details: RPMI-8226, 48 h, read-out: Activity
# [30] = system: CCRF-CEM; experiment: Growth inhibition of human CCRF-CEM cells assessed as cell growth at 10^-5 M incubated for 48 hrs by sulforhodamine B assay relative to control; details: read-out: Activity
# [31] = system: NCI/ADR-RES; experiment: Growth inhibition of human NCI/ADR-RES cells assessed as cell growth at 10^-5 M incubated for 48 hrs by sulforhodamine B assay relative to control; details: read-out: Activity
# [32] = system: U-251; experiment: Growth inhibition of human U251 cells assessed as cell growth at 10^-5 M incubated for 48 hrs by sulforhodamine B assay relative to control; details: U-251, 48 h, read-out: Activity
SMILES,growth at 10 µM [1],growth at 10 µM [2],growth at 10 µM [3],growth at 10 µM [4],growth at 10 µM [5],growth at 10 µM [6],growth at 10 µM [7],growth at 10 µM [8],growth at 10 µM [9],growth at 10 µM [10],growth at 10 µM [11],growth at 10 µM [12],growth at 10 µM [13],growth at 10 µM [14],growth at 10 µM [15],inhibition of growth at 10 µM [16],growth at 10 µM [17],growth at 10 µM [18],growth at 10 µM [19],growth at 10 µM [20],other results
O=C1/C(=C\c2cccn2CCCCCn2c3ccccc3c(=O)c3ccccc32)c2ccccc2N1c1c(Cl)cccc1Cl,87.3%,97%,100%,98.7%,95.6%,97.2%,99.7%,97.5%,95.7%,106%,110%,65.6%,66.3%,72.2%,100%,72%,97.1%,97.6%,74.4%,62.3%,growth at 10 µM [21]: 99.8%; growth at 10 µM [22]: 99.1%; growth at 10 µM [23]: 97.7%; growth at 10 µM [24]: 75.5%; growth at 10 µM [25]: 111%; growth at 10 µM [26]: 103%; growth at 10 µM [27]: 69.4%; growth at 10 µM [28]: 96.6%; growth at 10 µM [29]: 92.3%; growth at 10 µM [30]: 100%; growth at 10 µM [31]: 97.3%; growth at 10 µM [32]: 93%
O=C1Nc2ccccc2/C1=C/c1cccn1CCCCCn1c2ccccc2c(=O)c2ccccc21,86.7%,94.2%,97.1%,73%,90.4%,73.3%,95.9%,69.3%,83.3%,108%,98.8%,65.5%,42.5%,56.2%,106%,98%,65.5%,52.1%,65.9%,57.1%,growth at 10 µM [21]: 93.8%; growth at 10 µM [22]: 70.9%; growth at 10 µM [23]: 45.6%; growth at 10 µM [24]: 49.3%; growth at 10 µM [25]: 97.9%; growth at 10 µM [26]: 93.1%; growth at 10 µM [27]: 12.1%; growth at 10 µM [28]: 80.3%; growth at 10 µM [29]: 22.1%; growth at 10 µM [30]: 44.9%; growth at 10 µM [31]: 60.9%; growth at 10 µM [32]: 93.4%
O=C1/C(=C\c2cccn2CCCCCCn2c3ccccc3c(=O)c3ccccc32)c2ccccc2N1c1c(Cl)cccc1Cl,95.2%,104%,103%,90.6%,97.4%,98%,109%,101%,94.7%,110%,98.6%,75.3%,78.8%,92.8%,99.6%,57%,104%,97.9%,87.8%,58.3%,growth at 10 µM [21]: 91%; growth at 10 µM [22]: 102%; growth at 10 µM [23]: 98.5%; growth at 10 µM [24]: 70.2%; growth at 10 µM [25]: 113%; growth at 10 µM [26]: 99.2%; growth at 10 µM [27]: 69.8%; growth at 10 µM [28]: 98.5%; growth at 10 µM [29]: 93.4%; growth at 10 µM [30]: 108%; growth at 10 µM [31]: 104%; growth at 10 µM [32]: 97.6%
O=C1NC(=O)C(=Cc2cccn2CCCCCCn2c3ccccc3c(=O)c3ccccc32)C(=O)N1,107%,107%,100%,91.5%,99.8%,94.4%,101%,94.6%,97%,93.1%,94.1%,85%,101%,105%,103%,25%,93.9%,74.7%,92.8%,95.4%,growth at 10 µM [21]: 126%; growth at 10 µM [22]: 103%; growth at 10 µM [23]: 93%; growth at 10 µM [24]: 70.3%; growth at 10 µM [25]: 103%; growth at 10 µM [26]: 97.6%; growth at 10 µM [27]: 97.1%; growth at 10 µM [28]: 89.7%; growth at 10 µM [29]: 73.9%; growth at 10 µM [30]: 93.8%; growth at 10 µM [31]: 92.9%; growth at 10 µM [32]: 90.5%
O=C1NC(=O)C(=Cc2cccn2CCCCn2c3ccccc3c(=O)c3ccccc32)C(=O)N1,92.6%,85.4%,86.6%,72.1%,100%,82.5%,90.2%,82.5%,85.7%,88.1%,97.3%,86.1%,100%,100%,91.4%,43%,88.1%,58.9%,82.9%,87.2%,growth at 10 µM [21]: 92.4%; growth at 10 µM [22]: 96.6%; growth at 10 µM [23]: 86.4%; growth at 10 µM [24]: 63.4%; growth at 10 µM [25]: 92.2%; growth at 10 µM [26]: 78.5%; growth at 10 µM [27]: 74.3%; growth at 10 µM [28]: 82.6%; growth at 10 µM [29]: 49.4%; growth at 10 µM [30]: 64.1%; growth at 10 µM [31]: 88.4%; growth at 10 µM [32]: 76%
O=C1Nc2ccccc2/C1=C/c1cccn1CCCCCCn1c2ccccc2c(=O)c2ccccc21,92.3%,100%,93.6%,88%,87.2%,78.2%,90.7%,75.4%,87%,103%,97.9%,56.4%,42.8%,50.5%,110%,100%,63.5%,66.6%,72.6%,53.8%,growth at 10 µM [21]: 78.7%; growth at 10 µM [22]: 64.9%; growth at 10 µM [23]: 47.5%; growth at 10 µM [24]: 56.2%; growth at 10 µM [25]: 94%; growth at 10 µM [26]: 97.2%; growth at 10 µM [27]: 12.8%; growth at 10 µM [28]: 91.2%; growth at 10 µM [29]: 25.3%; growth at 10 µM [30]: 49.8%; growth at 10 µM [31]: 71.8%; growth at 10 µM [32]: 92.4%
